Experimental data reported in PubChem BioAssay AID1508591.

Conditions: rat; liver microsomes; pH 7.4; 15.0 min; 1.0 µM

First: O=C(Nc1ncc([S+](=O)([O-])N2CCOCC2)s1)c1cccc(Br)c1
Second: CN(C)C(=O)c1cccc(-c2csc(N3CCC(C(N)=O)CC3)n2)c1
The half-life of the first is lower: 23 min for the first, > 30 min for the second.

`COc1ccc(C2c3[nH]c4ccc(OC)cc4c3CCN2C(=O)Nc2ccccc2)cc1` (stereo not given) and `Cc1ccc(-c2cc(C(=O)Nc3ccc(-n4cncn4)cc3)c3ccccc3n2)cc1C` are within 1.5-fold of each other in half-life: 25.7 min for the first, 23 min for the second.

`Cc1nc(N)nc2ccccc12` and `O=c1c2ccccc2nc2n1CCC2` cannot be ordered by half-life: > 30 min for the first, > 30 min for the second.

Going from `O=C(NCc1cccc(C(F)(F)F)c1)c1ccc(CN2CCCCC2)cc1` to `Cc1cc(-c2nnc3n2CCCCC3)c(C)n1-c1cccc(C(F)(F)F)c1`, the half-life falls from 15 min to 1.9 min (7.9-fold).

First: Cc1ccc(C)c(CN2CCC(CNC(=O)Nc3ccc(Br)cc3F)CC2)c1
Second: CCOC(=O)C1CCN(C(=O)C(C)(C)NC(=O)Nc2ccc(Cl)cc2Cl)CC1
The half-life of the first is 2.6-fold higher: 3.58 min for the first, 1.36 min for the second.

First: CC1CC(C)(C)N(C(=O)CN2C(=O)c3ccccc3C2=O)c2ccccc21 (stereo not given)
Second: Cc1cc(SCC(=O)c2ccccc2)n2ncc(-c3ccccc3)c2n1
The half-life of the first is 2.4-fold lower: 1.56 min for the first, 3.77 min for the second.

Compared with `O=C(O)c1cccc(-c2noc(-c3ccccc3F)n2)c1`, `COC(=O)CSc1nc(-c2ccccc2)cc(-c2ccco2)c1C#N` is lower in half-life: > 30 min for the first, 1 min for the second.

First: CCOc1ccccc1N1CC(c2nc3ccccc3n2CCOc2ccc(C(C)(C)C)cc2)CC1=O (stereo not given)
Second: CCOc1ccc(N2CC(c3nc(-c4ccccn4)no3)CC2=O)cc1 (stereo not given)
The half-life of the first is lower: 2.34 min for the first, > 30 min for the second.

Going from `Cc1cnc(CNc2nc(-c3ccccc3Cl)nc3ccccc23)cn1` to `Fc1ccccc1-c1nc(NCc2ccc(-c3cccnc3)cc2)c2ccccc2n1`, the half-life falls from 20 min to 5.9 min (3.4-fold).

First: Cc1cc(-c2cc3c(nc2-c2ccccc2)nc(C(=O)NCCN(C)C)n3C)ccn1
Second: Cn1c(C(=O)NCCc2ccccn2)nc2nc(-c3ccccc3)c(Cl)cc21
The half-life of the first is higher: > 30 min for the first, 7.82 min for the second.

`NC(=O)C1CCN(c2nc(-c3ccc([N+](=O)[O-])cc3)cs2)CC1` and `NC(=O)C1CCN(c2nc(-c3ccc(C(F)(F)F)cc3)cs2)CC1` are within 1.5-fold of each other in half-life: 5.53 min for the first, 5.39 min for the second.

First: N#Cc1cccc(NC(=O)c2sc3nc4c(cc3c2N)N2CCC4CC2)c1
Second: CCOC(=O)c1ccc(NC(=O)c2sc3nc4c(cc3c2N)N2CCC4CC2)cc1
The half-life of the first is 21-fold higher: 25.6 min for the first, 1.21 min for the second.

Compared with `Cc1cc(NS(=O)(=O)c2ccc(NC(=O)c3oc4ccccc4c3C)cc2)nc(C)n1`, `Cc1ccc(NC(=O)c2ccncc2NS(=O)(=O)c2ccc(C)cc2)cc1` is lower in half-life: > 30 min for the first, 2.9 min for the second.

`Cc1ccc(S(=O)(=O)Nc2cnccc2C(=O)Nc2nc(-c3ccccc3Cl)cs2)cc1` and `Cc1ccc(S(=O)(=O)Nc2cccc(C(=O)Nc3nc(-c4ccccc4)cs3)c2Cl)cc1` are within 1.5-fold of each other in half-life: 13 min for the first, 15 min for the second.

Compared with `O=C(Nc1ccc(-c2ccccc2)cc1)[C@H](Cc1ccc(O[S+](=O)([O-])c2cccc3cnccc23)cc1)N[S+](=O)([O-])c1cccc2cnccc12`, `COc1cccc(CNc2ccc(S(=O)(=O)Nc3cccc(-c4ccccc4)c3)cc2)c1O` is 5.5-fold higher in half-life: 3.1 min for the first, 17 min for the second.

Going from `Cc1cc(F)ccc1S(=O)(=O)Nc1cnccc1C(=O)Nc1nc(-c2ccccc2)cs1` to `N#Cc1ccccc1S(=O)(=O)Nc1cnccc1C(=O)Nc1nc(-c2ccccc2)cs1`, the half-life falls from 20 min to 7 min (2.9-fold).

Going from `COc1ccc(-n2nc(C3CCCN(C(=O)c4ccc(C)cc4)C3)[nH]c2=O)cc1` (stereo not given) to `O=C(c1ccccc1)N1CCC(c2nn(-c3ccc(F)cc3)c(=O)[nH]2)CC1`, the half-life rises from 23.9 min to > 30 min.

Compared with `NC(=O)C1CCN(c2ncnc(-c3ccc4c(c3)OCCCO4)n2)CC1`, `NC(=O)C1CCN(c2nc(-c3ccc4c(c3)CCO4)cs2)CC1` is 3.1-fold lower in half-life: 17.3 min for the first, 5.55 min for the second.

Compared with `CC(C)OC(=O)c1ccnc2cc(C(OCCN3CCCCC3)c3ccccc3Cl)sc12` (stereo not given), `COc1ccccc1Nc1ccnc(N2CCN(C(=O)c3ccccc3Cl)CC2)n1` is 1.8-fold higher in half-life: 4.49 min for the first, 7.9 min for the second.

First: Cc1cccc2oc(NC3=NC(c4[nH]ncc4Cl)C4=C(CCCC4=O)N3)nc12 (stereo not given)
Second: O=C1CCCC2=C1C1(CCS(=O)(=O)C1)N=C(Nc1nc3ccccc3o1)N2 (stereo not given)
The half-life of the first is 1.6-fold lower: 10.6 min for the first, 17 min for the second.

First: CC(C)(C)c1ccc(SC2=NS(=O)(=O)c3ccccc32)cc1
Second: Nc1nc(N)c2cc(Sc3ccc4ccccc4c3)ccc2n1
The half-life of the first is lower: 1.74 min for the first, > 30 min for the second.

Compared with `Cc1ccc(CNCc2cn[nH]c2-c2ccc(C)cc2)cc1`, `CC(C)c1ccccc1-c1ncc(F)c(NCc2ccc(-c3ccn[nH]3)cc2)n1` is 2.1-fold higher in half-life: 1.34 min for the first, 2.8 min for the second.

Going from `CC(=O)c1c(C)[nH]c(C(=O)Nc2cccc([S+](=O)([O-])Nc3c(C)cccc3C)c2)c1C` to `COc1ccc(NC(=O)c2[nH]c(C)c(C(C)=O)c2C)cc1S(=O)(=O)Nc1cccc(C#N)c1`, the half-life rises from 5 min to 15 min (3-fold).

First: CCCNc1oc(-c2cccc3ccccc23)nc1C#N
Second: c1ccc(CNc2nc(NCc3ccccc3)c3ccccc3n2)cc1
The half-life of the first is 2.5-fold higher: 13 min for the first, 5.2 min for the second.

Going from `COc1c2c(c3c(c1CCC(=O)O)OC(C)(C)C=C3)OC(C)(C)C=C2` to `COc1ccc2[nH]c(S(=O)Cc3ncc(C)c(OC)c3C)nc2n1` (stereo not given), the half-life falls from > 30 min to 19.2 min.

Going from `Cc1ccc([S+](=O)([O-])n2cc(-c3ccc(-c4ccccc4)cc3)c3ccccc32)cc1` to `Brc1ccccc1-c1nc(NCc2ccc(-c3cccnc3)cc2)c2ccccc2n1`, the half-life falls from > 30 min to 6.55 min.

Compared with `OC1(c2ccc(Cl)cc2)CCN(Cc2c[nH]c3ccccc23)CC1`, `O=C(Nc1ccc(S(=O)(=O)N2CCN(Cc3ccccc3)CC2)cc1)c1cnccn1` is 2.2-fold lower in half-life: 3.89 min for the first, 1.8 min for the second.

First: O=C(Nc1ccccc1C(=O)Nc1ccccc1C(=O)NCc1ccco1)c1ccco1
Second: CN(Cc1ccccc1)C(=O)c1ccc(S(=O)(=O)Nc2ccccc2)cc1
The half-life of the first is 6.7-fold higher: 11 min for the first, 1.64 min for the second.

Going from `O=C(Cc1ccc2ccccc2c1)Nc1ccc(S(=O)(=O)Nc2nccs2)cc1` to `Cc1ccc(NS(=O)(=O)c2ccc(C(=O)Nc3nc(-c4ccccc4)cs3)cc2)cc1`, the half-life falls from > 30 min to 6.5 min.

`Nc1ccc(CNc2ccc([S+](=O)([O-])Nc3nccs3)cc2)c(O)c1` and `COc1cccc(CNc2ccc(C(=O)Nc3nccs3)cc2)c1O` cannot be ordered by half-life: > 30 min for the first, > 30 min for the second.

`CCOc1ccc(CCNC(=O)c2cc3cnccc3n2Cc2cccc(C)n2)cc1OCC` and `CCOc1ccc(CCNC(=O)c2cc3ccncc3n2Cc2cccc(C)n2)cc1OCC` are the same in half-life: 29 min for the first, 29 min for the second.

Compared with `O=C(Nc1nc(-c2ccccc2)cs1)c1ccncc1NS(=O)(=O)c1cccnc1`, `O=S(=O)(Nc1cccc2ccccc12)c1ccc(NCc2cccc(Cl)c2O)cc1` is 4.7-fold lower in half-life: 20 min for the first, 4.3 min for the second.

First: CCOC(=O)c1ccc(NC(=O)CSc2nc3c(cc2C#N)N2CCC3CC2)cc1
Second: Cc1cc(C)nc(NC(=S)N2CCN(c3cccc(OC(F)F)c3)CC2)c1
The half-life of the first is lower: 4.26 min for the first, > 30 min for the second.

Compared with `Cc1ccc(S(=O)(=O)c2cnc(SC(C)C(=O)Nc3ccccc3)[nH]c2=O)cc1` (stereo not given), `COc1ccccc1CNS(=O)(=O)c1ccc(-c2cnc(C3CC3)o2)cc1` is 6.8-fold lower in half-life: 10.7 min for the first, 1.58 min for the second.

Going from `COC(=O)c1ccc(Oc2nc3c(c(=O)n(C)c(=O)n3C)n2CCC(C)C)cc1` to `COc1cc(NC(=O)c2nc3ccccc3n(C)c2=O)cc(OC)c1OC`, the half-life rises from 2.7 min to > 30 min.

Compared with `CC1CCN(S(=O)(=O)c2ccc3c(ccc(=O)n3CC(=O)NCc3ccc(Cl)cc3)c2)CC1`, `CCCCOc1ccc(CNC(=O)c2cc3n(n2)CCCN(Cc2ccc(C)cc2)C3=O)cc1` is 3-fold higher in half-life: 1.45 min for the first, 4.33 min for the second.

Compared with `COc1ccc(S(=O)(=O)N2CCN(C(=O)C3COc4ccccc4O3)CC2)cc1` (stereo not given), `NC(=O)C1CCN(c2nc(-c3ccc(Oc4ccccc4)cc3)cs2)CC1` is 2.4-fold higher in half-life: 7.6 min for the first, 18.5 min for the second.

First: O=C(COC(=O)CCC(=O)c1cccs1)NCc1ccco1
Second: CCOc1ccc(CCNC(=O)c2ccccc2)cc1OCC
The half-life of the first is 1.5-fold lower: 1 min for the first, 1.5 min for the second.

Compared with `CCN1CCN(C(=O)c2cc(-c3ccc(F)cc3)c3nncn3n2)CC1`, `Cc1ccnc(NC(=S)N2CCN(c3ccccc3C(F)(F)F)CC2)c1` is lower in half-life: > 30 min for the first, 2 min for the second.

`COc1cc(Cl)c(C)cc1NS(=O)(=O)c1c(C)nc2sccn2c1=O` and `Cc1cccc(C)c1NC(=O)c1nc(SC(C)C)ncc1Cl` are within 1.5-fold of each other in half-life: 1.53 min for the first, 1.38 min for the second.

Going from `Cc1ccccc1C(=O)N1CCc2cc(-n3cc(NC(=O)Cc4ccccc4)cn3)ccc21` to `Cc1ccc(CC(=O)Nc2nc(-c3ccc4c(c3)CCN4C(=O)c3ccccc3C)c(C)s2)cc1C`, the half-life rises from 11 min to 19 min (1.7-fold).

Compared with `O=C1Nc2ccccc2C1Cc1cc(Cl)c(O)c(Cl)c1` (stereo not given), `CN(C)CCOC1=Cc2ccccc2Sc2ccc(Cl)cc21` is 19-fold lower in half-life: 24 min for the first, 1.29 min for the second.

Compared with `Cc1noc(C)c1[S+](=O)([O-])N1CCC2(CC1)CC(c1cccc(C(F)(F)F)c1)=NO2`, `CN(C)c1cccc(-c2ccnc(N3CCC(C(N)=O)CC3)n2)c1` is 15-fold lower in half-life: 24.8 min for the first, 1.67 min for the second.

`O=C(NCCc1cnc[nH]1)c1ccc(-c2ncc3cnc(-c4cccc(F)c4)cn23)cc1` and `CNC(=O)C1CCN(C(=O)c2ccc(-c3ncc4cnc(-c5ccccc5)cn34)cc2)CC1` cannot be ordered by half-life: > 30 min for the first, > 30 min for the second.

First: Nc1scc2c(C(=O)O)nn(-c3ccccc3)c(=O)c12
Second: NC(=O)C1CCN(c2nc(-c3ccccc3Cl)cs2)CC1
The half-life of the first is higher: > 30 min for the first, 4.02 min for the second.

`Fc1ccc(F)c(Nc2nc(-c3ccncc3)nc3ccccc23)c1` and `Fc1cc(Nc2nc(-c3ccncc3)nc3ccccc23)ccc1-c1ccncc1` are within 1.5-fold of each other in half-life: 10 min for the first, 13 min for the second.

`O=c1[nH]cnc2c1ccn2C1OC(CO)C(O)C1O` (stereo not given) and `O=c1c(-c2ccc(O)cc2)coc2cc(O)ccc12` cannot be ordered by half-life: > 30 min for the first, > 30 min for the second.

First: c1ccc(Nc2cc3c(cn2)CN(Cc2ccsc2)CCN3)cc1
Second: Fc1ccc(Nc2ccnc(-c3ccncc3)n2)cc1F
The half-life of the first is 7.5-fold lower: 1.74 min for the first, 13 min for the second.

Going from `CC(C)c1nc2oc3c(NCCN(C)C)ncnc3c2c2c1COC(C)(C)C2` to `Cc1nc(Nc2n[nH]c3c2CN(C(=O)N[C@H](CN(C)C)c2ccccc2)C3(C)C)c2sccc2n1`, the half-life falls from > 30 min to 21.9 min.

`O=C(O)c1ccc(N2C(=O)/C(=C/c3ccc(-c4ccc([N+](=O)[O-])cc4)o3)C=C2c2ccccc2)cc1` and `CC(C)(O)CCc1ccc(OCc2cc(-c3cccc(OC(F)F)c3)c3ncccc3c2)cc1` cannot be ordered by half-life: > 30 min for the first, > 30 min for the second.

`C/C=C1/CN2CC[C@@]34c5ccccc5N(C)[C@@H]3[C@@H]2C[C@@H]1[C@H]4C(=O)OC` and `Cc1cc(-c2nnc3n2CCCCC3)c(C)n1-c1ccc(C#N)cc1` are within 1.5-fold of each other in half-life: 4.13 min for the first, 3.6 min for the second.

Compared with `CCCCN(CC)CCNC(=O)c1cc2c(-c3ccc(Cl)cc3)nn(C)c2s1`, `Cc1nnc2n1-c1ccc(Cl)cc1C(c1ccccc1)=NC2` is 5.6-fold higher in half-life: 3.76 min for the first, 21.2 min for the second.

For `O=C(Nc1nc2cc(C(F)(F)F)cc(NC3CC3)n2n1)c1cccnc1`, the half-life was > 30 min.
